“Also recorded” adds a separate entry of the source.
Columns and labels:
C57BL/6 mice = test: Bleomycin induced lung fibrosis; format: in vivo; details: for histology: inflammatory cells accumulation, fibrotic areas, loss of lung architecture: day 10
Source text: In order to determine the activity of the exemplary all-D retro-inverso IB(s) peptide XG-102 (SEQ ID NO: 11) in the treatment of Chronic Obstructive Pulmonary Disease (COPD) XG-102 (SEQ ID NO: 11) is used in an animal model of Bleomycin induced acute lung inflammation and fibrosis. The protocol of bleomycin induced inflammation and fibrosis has been described before in the literature. The aim of the Experiment was to investigate the effect of XG-102 (SEQ ID NO: 11) by subcutaneous (s.c.) route on neutrophil recruitment in broncho alveolar lavage (BAL) and lung in bleomycin induced inflammation and fibrosis: • at 1 day after a single bleomycin administration (10 mg/kg) • and at day 10 with the development of fibrosis 1) Method and Experimental Approach • The test compound XG-102 (SEQ ID NO: 11) at two doses and vehicle control were given s.c. with a single intranasal administration of bleomycin and mice were analyzed after 1 and 10 days. The animals used in the model were 10 C57BL/6 mice (8 weeks old) per group. The experimental groups included vehicle, 0.001 mg/kg XG-102 (SEQ ID NO: 11) and 0.1 mg/kg XG-102 (SEQ ID NO: 11), and the treatment consisted of repeated sub-cutaneous administration of XG-102 (SEQ ID NO: 11), prior to bleomycin administration then every 3 days. Acute lung inflammation at 24 h was monitored by BAL lavage, cytology, cell counts, and lung myeloperoxidase activity. The effect of the compound was compared with vehicle controls. Lung fibrosis was assessed histologically using hematoxylin and eosin staining at day 10 after the single dose of bleomycin. […] 1.4) Cell Count and Determination • Total cell count was determined in BAL fluid using a Malassez hemocytometer. […] 1.5) TNF Measurement • TNF level in BALF was determined using ELISA assay kits (Mouse DuoSet, R&D system, Minneapolis, USA) according to manufacturer's instructions. […] 1.6) MPO-Measurement • MPO-levels were measured upon administration of XG-102. […]

TC-3 cells = test: IL-1 induced pancreatic beta-cell death, peptide treatment; format: cell-based; details: one single addition 1 μM, 15 days of incubation with IL-1
Experimental: Inhibition of IL-1 induced pancreatic beta-cell death by the D-TAT-IB1(s) peptide was analyzed. TC-3 cells were incubated as described above for 30 minutes with one single addition of the indicated peptides (1, μM), then IL-1 (10 ng/ml) was added.
Apoptotic cells were then counted after two days of incubation with IL-1 by use of Propidium Iodide and Hoechst 33342 nuclear staining. A minimum of 1,000 cells were counted for each experiment. Standard Error of the Means (SEM) are indicated, n=5.
Long term inhibition of IL-1P induced cell-death by the D-TAT-IB1 peptide was also analyzed. TC-3 cells were incubated as above for 30 minutes with one single addition of the indicated peptides (1 μM), then IL-1 (10 ng/ml) was added, followed by addition of the cytokine every two days. Apoptotic cells were then counted after 15 days of incubation with IL-1 by use of propidium iodide and Hoechst 33342 nuclear staining. […] A minimum of 1.000 cells were counted for each experiment.

CC(C)C[C@@H](NC(=O)[C@@H](Cc1ccccc1)NC(=O)[C@H]1CCCN1C(=O)[C@@H](CCC(N)=O)NC(=O)[C@H](NC(=O)[C@H]1CCCN1C(=O)[C@@H](CCCNC(=N)N)NC(=O)[C@@H](CO)NC(=O)[C@@H](CCC(N)=O)NC(=O)[C@H](N)CC(=O)O)C(C)C)C(=O)N[C@H](CC(N)=O)C(=O)N[C@H](CC(C)C)C(=O)N[C@@H](C(=O)N[C@@H](C(=O)N1CCC[C@@H]1C(=O)N[C@H](CCCNC(=N)N)C(=O)N[C@H](CCCCN)C(=O)N1CCC[C@@H]1C(=O)N[C@H](CCCNC(=N)N)C(=O)N1CCC[C@@H]1C(=O)N1CCC[C@@H]1C(=O)N[C@H](CCCNC(=N)N)C(=O)N[C@H](CCCNC(=N)N)C(=O)N[C@H](CCCNC(=N)N)C(=O)N[C@H](CCC(N)=O)C(=O)N[C@H](CCCNC(=N)N)C(=O)N[C@H](CCCNC(=N)N)C(=O)N[C@H](CCCCN)C(=O)N[C@H](CCCCN)C(=O)N[C@H](CCCNC(=N)N)C(=O)NCC(=O)O)[C@H](C)O)[C@H](C)O [XG-102]
lymphocyte recruitment and total cells in bronchioalveolar lavage space (C57BL/6 mice; 0.001 mg/kg s.c., 3 times in 10 days): reduced significantly the lymphocyte recruitment and the number of total cells recruited | histology: inflammatory cells accumulation, fibrotic areas, loss of lung architecture (C57BL/6 mice; high dose 0.1 mg/kg): not with the high dose | histology: inflammatory cells accumulation, fibrotic areas, loss of lung architecture (C57BL/6 mice; low dose 0.001 mg/kg, 0.001 mg/kg): A decrease of these parameters was observed; also recorded: attenuates the Bleomycin-induced fibrosis | long term protection from IL-1 induced cell death (TC-3 cells): able to confer long term (15 day) protection

— patent publication US9006185B2, “Use of cell-permeable peptide inhibitors of the JNK signal transduction pathway for the treatment of various diseases” (Xigen Inflammation Ltd., priority 2008, dated 2015)
